Measurements published in patent US11053235B2, “Substituted 1,4-dihydropyrimidines for the treatment of HBV infection or HBV-induced diseases” (Janssen Sciences Ireland Unlimited Company, priority 2018, dated 2021).

Columns and labels:
HBV = experiment: Anti-viral assay in HepG2.2.15 cells: HBV inhibitory activity (HBV DNA in culture medium by q-PCR); type: cell-based; settings: Hepatitis B virus, HepG2.2.15, 144 h, HepG2.2.15 cells, 6 days treatment, HBV DNA in culture medium by q-PCR, highest concentration 10 uM; read-out: EC50
Summary of the method: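 HepG2.2.15 cells seeded at 40,000/well in 2% FBS medium, dosed next day for 6 days (medium refreshed once midway); 8-point 3-fold dilutions from 10 uM top. HBV DNA in culture medium extracted and quantified by q-PCR; EC50 calculated from dose-response.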

[1] = Cytotoxicity determination in HepG2.2.15 cells (CCK-8); type: cell-based; settings: human, 6 days treatment, CCK-8, highest concentration 100 uM
Summary of the method: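 HepG2.2.15 cells seeded at 5,000 cells/well in 2% FBS medium and exposed to compounds for 6 days (medium refreshed once), 8 three-fold dilutions from 100 uM. Viability read by CCK-8 after 2.5 h at 37 °C, absorbance 450 nm with 630 nm reference; CC50 calculated.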

| SMILES | EC50 (HBV) | CC50 at 6 days [1] |
| --- | --- | --- |
| COC(=O)C1=C([C@H]2CC[C@H](c3ncc(C4(C(=O)O)CC4)cn3)CC2)NC(c2nccs2)=NC1c1ccc(F)c(F)c1Cl (single isomer, unassigned) [Compound I-46-C, 1-(2-((trans)-4-(6-(2-chloro-3,4-difluorophenyl)-5-(methoxycarbonyl)-2-(thiazol-2-yl)-3,6-dihydropyrimidin-4-yl)cyclohexyl)pyrimidin-5-yl)cyclopropanecarboxylic Acid] | 0.015 µM | 16.1 µM |
| COC(=O)C1=C([C@H]2CC[C@H](c3ncc(C)c(C(=O)O)n3)CC2)NC(c2nccs2)=NC1c1ccc(F)c(F)c1Br (single isomer, unassigned) [Compound I-47-D, 2-((Trans)-4-(6-(2-bromo-3,4-difluorophenyl)-5-(methoxycarbonyl)-2-(thiazol-2-yl)-3,6-dihydropyrimidin-4-yl)cyclohexyl)-5-methylpyrimidine-4-carboxylic Acid] | 0.0059 µM | 19.3 µM |
| COC(=O)C1=C([C@H]2CC[C@H](c3nc(CC(=O)O)c(C)o3)CC2)NC(c2nccs2)=NC1c1ccc(F)cc1Cl (single isomer, unassigned) [Compound I-48-B, (trans)-2-(2-(4-(6-(2-Chloro-4-fluorophenyl)-5-(methoxycarbonyl)-2-(thiazol-2-yl)-3,6-dihydropyrimidin-4-yl)cyclohexyl)-5-methyloxazol-4-yl)acetic Acid] | 0.022 µM | 23 µM |
| COC(=O)C1=C([C@H]2CC[C@H](c3ncc(CC(=O)O)cn3)CC2)NC(c2nccs2)=NC1c1ccc(F)c(F)c1Cl (single isomer, unassigned) [Compound I-49-A, 2-(2-((trans)-4-(6-(2-chloro-3,4-difluorophenyl)-5-(methoxycarbonyl)-2-(thiazol-2-yl)-3,6-dihydropyrimidin-4-yl)cyclohexyl)pyrimidin-5-yl)acetic Acid] | 0.011 µM | 24.7 µM |
| COC(=O)C1=C([C@H]2CC[C@H](c3ncc(CC(=O)O)cn3)CC2)NC(c2nccs2)=NC1c1ccc(F)cc1Cl (single isomer, unassigned) [Compound I-50-A, 2-(2-((trans)-4-(6-(2-chloro-4-fluorophenyl)-5-(methoxycarbonyl)-2-(thiazol-2-yl)-3,6-dihydropyrimidin-4-yl)cyclohexyl)pyrimidin-5-yl)acetic Acid] | 0.011 µM | 16.4 µM |
| COC(=O)C1=C(C2CCN(c3ncc(CC(=O)O)cn3)CC2)NC(c2nccs2)=NC1c1ccc(F)c(F)c1C (single isomer, unassigned) [II-1-B, 2-(2-(4-(6-(3,4-Difluoro-2-methylphenyl)-5-(methoxycarbonyl)-2-(thiazol-2-yl)-3,6-dihydropyrimidin-4-yl)piperidin-1-yl)pyrimidin-5-yl)acetic Acid] | < 0.0046 µM | 4.97 µM |
| CCOC(=O)C1=C(C2CCN(c3ncc(C)c(C(=O)O)n3)CC2)NC(c2nccs2)=NC1c1cccc(F)c1C (single isomer, unassigned) [II-2-B, 2-(4-(5-(Ethoxycarbonyl)-6-(3-fluoro-2-methylphenyl)-2-(thiazol-2-yl)-3,6-dihydropyrimidin-4-yl)piperidin-1-yl)-5-methylpyrimidine-4-carboxylic Acid] | 0.0084 µM | 12.4 µM |
| CCOC(=O)C1=C(C2CCN(c3ncc(CC(=O)O)cn3)CC2)NC(c2nccs2)=NC1c1cccc(F)c1C (single isomer, unassigned) [II-3-B, 2-(2-(4-(5-(ethoxycarbonyl)-6-(3-fluoro-2-methylphenyl)-2-(thiazol-2-yl)-3,6-dihydropyrimidin-4-yl)piperidin-1-yl)pyrimidin-5-yl)acetic Acid] | < 0.0046 µM | 4.22 µM |
| CCOC(=O)C1=C(C2CCN(c3ncc(C)c(C(=O)O)n3)CC2)NC(c2nccs2)=NC1c1ccc(F)cc1C (single isomer, unassigned) [II-4-B, 2-(4-(5-(Ethoxycarbonyl)-6-(4-fluoro-2-methylphenyl)-2-(thiazol-2-yl)-3,6-dihydropyrimidin-4-yl)piperidin-1-yl)-5-methylpyrimidine-4-carboxylic Acid] | 0.019 µM | 16.3 µM |
| COC(=O)C1=C(C2CCN(c3ncc(CC(=O)O)cn3)CC2)NC(c2nccs2)=NC1c1cccc(F)c1C (single isomer, unassigned) [II-6-B, 2-(2-(4-(6-(3-Fluoro-2-methylphenyl)-5-(methoxycarbonyl)-2-(thiazol-2-yl)-3,6-dihydropyrimidin-4-yl)piperidin-1-yl)pyrimidin-5-yl)acetic Acid] | 0.0057 µM | 5.42 µM |
| COC(=O)C1=C(C2CCN(c3ncc(C)c(C(=O)O)n3)CC2)NC(c2nccs2)=NC1c1ccc(F)cc1C (single isomer, unassigned) [II-7-B, 2-(4-(6-(4-fluoro-2-methylphenyl)-5-(methoxycarbonyl)-2-(thiazol-2-yl)-3,6-dihydropyrimidin-4-yl)piperidin-1-yl)-5-methylpyrimidine-4-carboxylic Acid] | 0.041 µM | 28.4 µM |
| COC(=O)C1=C(C2CCN(c3ncc(C)c(C(=O)O)n3)CC2)NC(c2nccs2)=NC1c1cccc(F)c1Cl (single isomer, unassigned) [II-8-B, 2-(4-(6-(2-Chloro-3-fluorophenyl)-5-(methoxycarbonyl)-2-(thiazol-2-yl)-3,6-dihydropyrimidin-4-yl)piperidin-1-yl)-5-methylpyrimidine-4-carboxylic Acid] | 0.0081 µM | 19 µM |
| COC(=O)C1=C(C2CCN(c3ncc(CC(=O)O)cn3)CC2)NC(c2nccs2)=NC1c1cccc(F)c1Cl (single isomer, unassigned) [II-9-B, 2-(2-(4-(6-(2-Chloro-3-fluorophenyl)-5-(methoxycarbonyl)-2-(thiazol-2-yl)-3,6-dihydropyrimidin-4-yl)piperidin-1-yl)pyrimidin-5-yl)acetic Acid] | < 0.0046 µM | 4.9 µM |
| COC(=O)C1=C(C2CCN(c3ncc(C(=O)O)s3)CC2)NC(c2nccs2)=NC1c1cccc(F)c1Cl (single isomer, unassigned) [II-10-B, 2-(4-(6-(2-Chloro-3-fluorophenyl)-5-(methoxycarbonyl)-2-(thiazol-2-yl)-3,6-dihydropyrimidin-4-yl)piperidin-1-yl)thiazole-5-carboxylic Acid] | 0.0092 µM | 17.2 µM |
| COC(=O)C1=C(C2CCN(C(=O)c3cn[nH]c3)CC2)NC(c2nccs2)=NC1c1ccc(F)cc1Cl (single isomer, unassigned) [II-11-X, Methyl 6-(1-(1H-pyrazole-4-carbonyl)piperidin-4-yl)-4-(2-chloro-4-fluorophenyl)-2-(thiazol-2-yl)-1,4-dihydropyrimidine-5-carboxylate] | 0.058 µM | 16.2 µM |
| COC(=O)C1=C(C2CCN(C(=O)c3cnn(C)c3)CC2)NC(c2nccs2)=NC1c1ccc(F)cc1Cl (single isomer, unassigned) [II-12-B, Methyl 4-(2-chloro-4-fluorophenyl)-6-(1-(1-methyl-1H-pyrazole-4-carbonyl)piperidin-4-yl)-2-(thiazol-2-yl)-1,4-dihydropyrimidine-5-carboxylate] | 0.066 µM | 25.5 µM |
